Experimental data: patent publication US4112228A, “7-(D-α-Hydroxy-2-arylacetamido)-3-(2-carboxyalkyl-2,3-dihydro-s-tri azolo-[4,3-b]pyridazin-3-on-6-ylthiomethyl)-3-cephem-4-carboxylic acids and derivatives” (priority 1977, dated 1978)
Values after ≈ are worked out from the molar mass of the structure shown. Like-named read-outs stand apart in the source and are kept apart here.

What was measured:
[1] = tested on: E. coli; experiment: MIC by Steers' agar dilution method; type: cell-based; settings: Escherichia coli, read-out: MIC
[2] = tested on: Sal. enteritidis; experiment: MIC by Steers' agar dilution method; settings: Salmonella enterica
[3] = tested on: Serr. marcescens; experiment: MIC by Steers' agar dilution method; settings: Serratia marcescens
[4] = Blood levels in mice after subcutaneous administration; type: in vivo; settings: mouse, read-out: Blood level; for concentration at 0.25 h: 15'; for concentration at 0.5 h: 30'; for concentration at 1 h: 60'; for concentration at 2 h: 120'
Description: Groups of mice were administered subcutaneously graded doses of 40, 20 and 10 mg./kg..

[5] = tested on: Shig. dysenteriae; experiment: MIC by Steers' agar dilution method; settings: Shigella dysenteriae, MHA
[6] = tested on: Shig. sonnei; experiment: MIC by Steers' agar dilution method; type: cell-based; settings: Shigella sonnei, MHA
[7] = tested on: St. faecalis; experiment: MIC by Steers' agar dilution method; settings: Enterococcus faecalis

O=C(O)Cn1nc2ccc(SCC3=C(C(=O)O)N4C(=O)C(NC(=O)[C@H](O)c5ccccc5)[C@H]4SC3)nn2c1=O (stereo partly drawn) [BB-S488, 7-(D-Mandelamido)-3-(2-carboxymethyl-2,3-dihydro-s-triazolo[4,3-b]pyridazin-3-on-6-ylthiomethyl)-3-cephem-4-carboxylic Acid]
MIC ([1]; Ec-36 A15147 (β-lactamase), NA, Table 4): 6.3 µg/mL (≈ 11 µM)
MIC ([1]; Ec-36 A15147, MHA, Table 3): 3.1 µg/mL (≈ 5.41 µM)
MIC ([1]; Ec-40 A20361, MHA, Table 3): 0.2 µg/mL (≈ 0.349 µM)
MIC ([1]; Ec-44 A9535, MHA, Table 3): 0.1 µg/mL (≈ 0.175 µM)
MIC ([1]; Ec-45 A15148, MHA, Table 3): 3.1 µg/mL (≈ 5.41 µM)
MIC ([1]; Ec-46 A15164 (β-lactamase), HIA, Table 4): > 100 µg/mL
MIC ([1]; Ec-46 A15164 (β-lactamase), MHA, Table 4): 100 µg/mL (≈ 175 µM)
MIC ([1]; Ec-46 A15164 (β-lactamase), NA, Table 4): 50 µg/mL (≈ 87.3 µM)
MIC ([1]; Ec-46 A15164, MHA, Table 3): 25 µg/mL (≈ 43.7 µM)
MIC ([1]; Ec-47 A15170, MHA, Table 3): 100 µg/mL (≈ 175 µM)
MIC ([1]; Ec-49 A20107, MHA, Table 3): 0.4 µg/mL (≈ 0.699 µM)
MIC ([1]; Ec-50 A20109, MHA, Table 3): 0.2 µg/mL (≈ 0.349 µM)
MIC ([1]; Ec-51 A20343 (β-lactamase), HIA, Table 4): > 100 µg/mL
MIC ([1]; Ec-51 A20343 (β-lactamase), MHA, Table 4): > 100 µg/mL
MIC ([1]; Ec-51 A20343 (β-lactamase), NA, Table 4): 50 µg/mL (≈ 87.3 µM)
MIC ([1]; Ec-51 A20343, MHA, Table 3): 50 µg/mL (≈ 87.3 µM)
MIC ([1]; Ec-56 A20365, MHA, Table 3): 25 µg/mL (≈ 43.7 µM)
MIC ([1]; Ec-58 A9675, MHA, Table 3): 0.4 µg/mL (≈ 0.699 µM)
MIC ([1]; Ec-59 A20766, MHA, Table 3): 0.2 µg/mL (≈ 0.349 µM)
MIC ([1]; Ec-62 A20895, MHA, Table 3): 0.4 µg/mL (≈ 0.699 µM)
MIC ([1]; Juhl A15119, MHA, Table 1): 0.2 µg/mL (≈ 0.349 µM)
MIC ([1]; Juhl, MHA, Example 10): 0.2 µg/mL (≈ 0.349 µM)
MIC ([1]; NIHJ, MHA, Example 10): 0.2 µg/mL (≈ 0.349 µM)
MIC ([1]; NIHJ, MHA, Table 1): 0.025 µg/mL (≈ 0.0437 µM)
MIC ([1]; strain not named (1st of 3), MHA, Example 10): 0.1 µg/mL (≈ 0.175 µM)
MIC ([1]; strain not named (2nd of 3), MHA, Example 10): 0.05 µg/mL (≈ 0.0873 µM)
MIC ([1]; strain not named (3rd of 3), MHA, Example 10): 3.1 µg/mL (≈ 5.41 µM)
MIC ([2]; A9531, MHA, Table 1): 0.05 µg/mL (≈ 0.0873 µM)
MIC ([2]; MHA, Example 10): 0.025 µg/mL (≈ 0.0437 µM)
MIC ([2]; Se-1 A9531, MHA, Table 3): 0.1 µg/mL (≈ 0.175 µM)
MIC ([3]; A20019, MHA, Table 1): 100 µg/mL (≈ 175 µM)
MIC ([3]; MHA, Example 10): > 100 µg/mL
MIC ([3]; Sm-1 A20019 (β-lactamase), HIA, Table 4): > 100 µg/mL
MIC ([3]; Sm-1 A20019 (β-lactamase), MHA, Table 4): > 100 µg/mL
MIC ([3]; Sm-1 A20019 (β-lactamase), NA, Table 4): > 100 µg/mL
MIC ([3]; Sm-1 A20019, MHA, Table 3): 25 µg/mL (≈ 43.7 µM)
MIC ([3]; Sm-2 A20335, MHA, Table 3): 3.1 µg/mL (≈ 5.41 µM)
MIC ([3]; Sm-3 A20336, HIA, Table 4): > 100 µg/mL
MIC ([3]; Sm-3 A20336, MHA, Table 3): 6.3 µg/mL (≈ 11 µM)
MIC ([3]; Sm-3 A20336, MHA, Table 4): 0.8 µg/mL (≈ 1.4 µM)
MIC ([3]; Sm-3 A20336, NA, Table 4): 100 µg/mL (≈ 175 µM)
MIC ([3]; Sm-4 A20442, MHA, Table 3): 6.3 µg/mL (≈ 11 µM)
MIC ([3]; Sm-5 A20222, MHA, Table 3): 3.1 µg/mL (≈ 5.41 µM)
MIC ([3]; Sm-6 A20460, MHA, Table 3): 6.3 µg/mL (≈ 11 µM)
MIC ([3]; Sm-9 A20333, MHA, Table 3): 6.3 µg/mL (≈ 11 µM)
MIC ([3]; Sm-10 A20334, MHA, Table 3): 6.3 µg/mL (≈ 11 µM)
MIC ([3]; Sm-11 A20459, MHA, Table 3): 6.3 µg/mL (≈ 11 µM)
MIC ([3]; Sm-12 A20461, MHA, Table 3): 6.3 µg/mL (≈ 11 µM)
concentration at 0.25 h ([4]; sc 10 mg./kg.): 5000 ng/mL
concentration at 0.5 h ([4]; sc 10 mg./kg.): 3000 ng/mL
concentration at 1 h ([4]; sc 10 mg./kg.): 800 ng/mL
concentration at 0.25 h ([4]; sc 20 mg./kg.): 7400 ng/mL
concentration at 0.5 h ([4]; sc 20 mg./kg.): 6000 ng/mL
concentration at 1 h ([4]; sc 20 mg./kg.): 4300 ng/mL
concentration at 2 h ([4]; sc 20 mg./kg.): 700 ng/mL
concentration at 0.25 h ([4]; sc 40 mg./kg.): 19000 ng/mL
concentration at 0.5 h ([4]; sc 40 mg./kg.): 17000 ng/mL
concentration at 1 h ([4]; sc 40 mg./kg.): 12000 ng/mL
concentration at 2 h ([4]; sc 40 mg./kg.): 1600 ng/mL
MIC ([5]; Example 10): 0.025 µg/mL (≈ 0.0437 µM)
MIC ([5]; Table 1): 0.025 µg/mL (≈ 0.0437 µM)
MIC ([5]; Sd-1, Table 3): 0.1 µg/mL (≈ 0.175 µM)
MIC ([6]; A9516, Table 1): 0.025 µg/mL (≈ 0.0437 µM)
MIC ([6]; Example 10): 0.05 µg/mL (≈ 0.0873 µM)
MIC ([6]; Ss-1 Yale, Table 3): 0.1 µg/mL (≈ 0.175 µM)
MIC ([7]; A9536, MHA, Table 1): 100 µg/mL (≈ 175 µM)
MIC ([7]; MHA, Example 10): > 100 µg/mL
MIC ([7]; Sf-3 S. faecalis A9536, HIA, Table 4): > 100 µg/mL
MIC ([7]; Sf-3 S. faecalis A9536, MHA, Table 4): > 100 µg/mL
MIC ([7]; Sf-3 S. faecalis A9536, NA, Table 4): > 100 µg/mL
